Laboratory results from patent US20030007993A1, “biomedical devices with antimicrobial cationic peptide and protein coatings” (priority 2000, published 2003).
No end group written: not given here.

How the values were obtained:
bacteria = assay: surface coatings: adherence and growth of bacteria on the device (summary statements); assay type: cell-based; settings: coated lenses, in words; for viability of adhered cells: compared to the cells adhered to the uncoated lens
Experimental: (§1) For conducting total counts, etafilcon A lenses were removed from the manufacturers vials, washed three times in 1 ml PBS and then coated with various concentrations of cationic proteins/peptides overnight at 37° C. either individually or in combination. After incubation, the lenses were washed three times in PBS and 0.5 ml of 1×10^8 bacterial cells/ml was added to the lenses. After incubation at ambient temperature for 10 min, the lenses were washed three times in PBS to remove non-adherent or loosely adherent bacteria and stained with crystal violet for 1 min. The number of cells per lens was examined under the microscope. Five grids (0.005625 mm^2) per lens were counted and triplicate lenses for each treatment were assayed.
(§2) For conducting viable counts, etafilcon A lenses were removed from the manufacturers vials, washed three times in 1 ml PBS and then coated with various concentrations of cationic proteins/peptides overnight at 37° C. (either individually or in combination). After incubation, the lenses were washed three times in PBS and 0.5 ml of 1×10^8 bacterial cells/ml was added to the lenses. After incubation at ambient temperature for 10 min, the lenses were washed three times in PBS to remove non-adherent or loosely adherent bacteria. Lenses were then homogenized using 1 ml PBS and a small magnetic stirring bar (octagonal cross-section, 0.5″×0.125″) and stirred at maximum speed for one hour which was sufficient for lens disintegration. Serial dilutions were then made according to the technique of Miles and Misra and aliquots (20 μL) plated out on nutrient agar. After incubation overnight at 37° C., viable bacteria were determined and results expressed as colony forming units/mm^2 after calculation of the surface area of the lens (approximately 310 mm^2).
(§3) The lenses were incubated in concentrations of cationic proteins/peptides that were either effective in solution or the highest concentration available if there was no effect in solution. After rinsing, bacteria were added and numbers of cells analyzed as the total cells per mm^2 of the lens or the number of viable cells per mm^2 of the lens.

S. aureus 31 = assay: bacterial adhesion (total counts) and viable counts on coated etafilcon A lenses; assay type: cell-based, Staphylococcus aureus; parameters: key to Reduction v. control* / Reduction v. total**: “—” indicates no reduction in adhesion; settings: for Reduction v. control* / Reduction v. total**: strain Saur 31; for Reduction v. control*: coated etafilcon A lens compared to adhesion control lens not coated; for Reduction v. total**: compared to the number of total bacterial cells adhered to coated lens (growth of adhered bacteria)
Experimental: as §1, §2, §3

P. aeruginosa 6294 = assay: as above; assay type: cell-based, Pseudomonas aeruginosa; parameters: key to Reduction v. control* / Reduction v. total**: “—” indicates no reduction in adhesion; settings: for Reduction v. control* / Reduction v. total**: strain 6294
Experimental: as §1, §2, §3

[1] = test system: Pseudomonas aeruginosa 6294; assay: growth of bacteria in solution with cationic proteins/peptides (slow growing in PBS, rapid growing in TSB); assay type: cell-based
Experimental: (§4) To assess the effect of the cationic proteins/peptides in solution against rapid growing bacterial cells, bacteria were cultured in Trypticase soy broth (“TSB”) overnight at 35° C. Aliquots (20 μl) of this cell suspension were then added to fresh TSB (10 ml). Different concentrations of the cationic proteins/peptides were added to the fresh broth and incubated for up to 48 h at 35° C. Samples were taken at different time points and the optical density at 660 nm measured as a measure of changes in bacterial numbers was measured.
(§5) To assess the effect of the cationic proteins/peptides in solution against slow growing bacterial cells, cells were grown as previously in TSB. The cells were then harvested by centrifugation and washed in phosphate buffered saline (PBS; NaCl 8 g/l; KCl 0.2 g/l; Na2HPO4 1.15 g/l; KH2PO4 0.2 g/l). The cells were then re-suspended to OD 0.1 (unless otherwise stated) at 660 nm in PBS, different concentrations of cationic proteins/peptides were added and incubated for up to 48 h at 35° C. Samples were taken a different points and numbers of bacteria analyzed using the Miles and Misra technique (i.e. numbers that are viable after plating dilutions onto nutrient agar plates).
(§6) The results obtained in solution for all cationic proteins and peptides studied are shown on Table 3. Most protein/peptides were screened against only P. aeruginosa 6294 and S. aureus 31.
(§7) In Table 3, slow growing cells are those re-suspended in PBS with cationic protein/peptide and rapid growing are those re-suspended in TSB plus cationic protein/peptide. The numbers in μg/ml are in concentration showing peak activity. A “−” sign indicates no reduction in bacterial growth, a “+” sign indicates a 1 to 50% reduction in growth, a “++” sign indicates a 51 to 89% reduction in growth, a “+++” sign indicates a 90 to 98% reduction in growth a “++++” sign indicates a greater than 98% reduction in growth.

[2] = test system: Staphylococcus aureus Saur31; assay: as above; assay type: cell-based; settings: Saur 31
Experimental: as §4, §5, §6, §7

[3] = test system: Pseudomonas aeruginosa Paer1; assay: as above; assay type: cell-based; settings: Paer 1; 24 h, 15 μg/ml slow growing
Experimental: as §4, §5, §6, §7

[4] = test system: gram-positive and gram-negative bacteria; assay: growth of bacteria in solution (summary statement); assay type: cell-based; settings: in words
Experimental: as §4, §5, §6

[5] = test system: Staphylococcus intermedius Sint 2; assay: growth of bacteria in solution with cationic proteins/peptides (slow growing in PBS, rapid growing in TSB); assay type: cell-based; parameters: key: A “−” sign indicates no reduction in bacterial growth; —: A “−” sign indicates no reduction in bacterial growth; a “+” sign indicates a 1 to 50% reduction in growth; a “++” sign indicates a 51 to 89% reduction in growth; a “+++” sign indicates a 90 to 98% reduction in growth; a “++++” sign indicates a greater than 98% reduction in growth
Experimental: as §4, §5, §6, §7

Serratia marcesens Smar5 = assay: as above; assay type: cell-based; parameters: key: A “−” sign indicates no reduction in bacterial growth; —: A “−” sign indicates no reduction in bacterial growth; a “+” sign indicates a 1 to 50% reduction in growth; a “++” sign indicates a 51 to 89% reduction in growth; a “+++” sign indicates a 90 to 98% reduction in growth; a “++++” sign indicates a greater than 98% reduction in growth; settings: Smar 5
Experimental: as §4, §5, §6, §7

[6] = test system: Pseudomonas aeruginosa 6206; assay: as above; assay type: cell-based; parameters: key: A “−” sign indicates no reduction in bacterial growth; —: A “−” sign indicates no reduction in bacterial growth; a “+” sign indicates a 1 to 50% reduction in growth; a “++” sign indicates a 51 to 89% reduction in growth; a “+++” sign indicates a 90 to 98% reduction in growth; a “++++” sign indicates a greater than 98% reduction in growth
Experimental: as §4, §5, §6, §7

[7] = coated etafilcon A lens compared to adhesion control lens not coated
[8] = compared to the number of total bacterial cells adhered to coated lens (growth of adhered bacteria)
[9] = slow growing (PBS), 125-1000 μg/ml

Cecropin A
viability of adhered cells (bacteria): significant reduction in the viability
total adhesion of bacteria (bacteria): did not reduce the total adhesion
Reduction v. control* (S. aureus 31): —
Reduction v. total** (S. aureus 31): —
Reduction v. control* (P. aeruginosa 6294; [7]): —
Reduction v. total** (P. aeruginosa 6294; [8]): 93%

Cecropin P1
Reduction v. control* (S. aureus 31): —
Reduction v. total** (S. aureus 31): —
Reduction v. control* (P. aeruginosa 6294; [7]): —
Reduction v. total** (P. aeruginosa 6294; [8]): —

Defensin HNP-1
reduction in bacterial growth ([1]; 2 μg/ml): +(2 μg/ml) (a “+” sign indicates a 1 to 50% reduction in growth)
Reduction v. control* (S. aureus 31): —
Reduction v. total** (S. aureus 31): —
Reduction v. control* (P. aeruginosa 6294; [7]): —
Reduction v. total** (P. aeruginosa 6294; [8]): —

Magainin 1 (GIGKFLHSAGKFGKAFVGEIMKS; Magainin-1; UniProt P11006 37-59, looked up) [cationic peptide, source frog]
Reduction v. control* (S. aureus 31): —
Reduction v. total** (S. aureus 31): —
Reduction v. control* (P. aeruginosa 6294; [7]): —
Reduction v. total** (P. aeruginosa 6294; [8]): —

Magainin 2
reduction in bacterial growth ([1]; 24 h, 400 μg/ml, slow growing): +++(24 h, (a “+++” sign indicates a 90 to 98% reduction in growth)
Reduction v. control* (S. aureus 31): —
Reduction v. total** (S. aureus 31): —
Reduction v. control* (P. aeruginosa 6294; [7]): —
Reduction v. total** (P. aeruginosa 6294; [8]): —

Melittin
reduction in bacterial growth ([2]; 15 μg/ml rapid growing): ++++ (a “++++” sign indicates a greater than 98% reduction in growth)
reduction in bacterial growth ([2]; 24 h, 15 μg/ml slow growing): ++++(24 h, (a “++++” sign indicates a greater than 98% reduction in growth)
reduction in bacterial growth ([1]; 24 h, 15 μg/ml slow growing): ++(24 h, (a “++” sign indicates a 51 to 89% reduction in growth)
reduction in bacterial growth [3]: ++++(24 h, (a “++++” sign indicates a greater than 98% reduction in growth)
preventing the growth of gram-positive and gram-negative bacteria in solution [4]: most efficacious
initial adhesion of S. aureus 31 (S. aureus 31; coated lenses, in words): reduced initial adhesion
Reduction v. control* (S. aureus 31): 60%
reduction in bacterial growth ([5]; 24 h, 15 μg/ml rapid growing): ++++(24 h, (a “++++” sign indicates a greater than 98% reduction in growth)
reduction in bacterial growth ([5]; 24 h, 15 μg/ml slow growing): ++++(24 h, (a “++++” sign indicates a greater than 98% reduction in growth)
reduction in bacterial growth (Serratia marcesens Smar5; growth state not given, 15 μg/ml): —
Reduction v. control* (P. aeruginosa 6294; [7]): 70%

Melittin-1-13 AA
reduction in bacterial growth ([2]; 48h, 24h, 1000 μg/ml): ++(48h, (a “++” sign indicates a 51 to 89% reduction in growth)
reduction in bacterial growth ([1]; 24h, 1000 μg/ml): ++(24h, (a “++” sign indicates a 51 to 89% reduction in growth)
Reduction v. control* (S. aureus 31): —
Reduction v. total** (S. aureus 31): —
Reduction v. control* (P. aeruginosa 6294; [7]): —
Reduction v. total** (P. aeruginosa 6294; [8]): —

Nisin
viability of adhered cells (bacteria): significant reduction in the viability
total adhesion of bacteria (bacteria): did not reduce the total adhesion
reduction in bacterial growth ([1]; 2 μg/ml): ++(2 μg/ml) (a “++” sign indicates a 51 to 89% reduction in growth)
Reduction v. control* (S. aureus 31): —
Reduction v. total** (S. aureus 31): 50%

Protamine
preventing the growth of gram-positive and gram-negative bacteria in solution [4]: most efficacious
Reduction v. control* (S. aureus 31): —
Reduction v. total** (S. aureus 31): —
reduction in bacterial growth ([5]; rapid growing (TSB), 125-1000 μg/ml): −(rapid
reduction in bacterial growth [5, 9]: ++++ (slow (a “++++” sign indicates a greater than 98% reduction in growth)
reduction in bacterial growth [6, 9]: ++++(slow (a “++++” sign indicates a greater than 98% reduction in growth)
reduction in bacterial growth (Serratia marcesens Smar5; 1000 μg/ml slow growing): ++++(1000 (a “++++” sign indicates a greater than 98% reduction in growth)
reduction in bacterial growth (Serratia marcesens Smar5; <1000 μg/ml slow growing): −(<1000
viability of the cells on the coated lenses (P. aeruginosa 6294; P. aeruginosa 6294, in words): reduced the viability
adhesion of P. aeruginosa 6294 to the lenses (P. aeruginosa 6294; coated lenses, in words): significantly reduced the adhesion
Reduction v. control* (P. aeruginosa 6294; [7]): 80%
Reduction v. total** (P. aeruginosa 6294; [8]): 80%

Transferrin
Reduction v. control* (P. aeruginosa 6294; 125 μg/ml, compared to adhesion control lens not coated): —
Reduction v. total** (P. aeruginosa 6294; 125 μg/ml, compared to total bacterial cells adhered to coated lens): —

β Defensin 1 (DHYNCVSSGGQCLYSACPIFTKIQGTCYRGKAKCCK; ends and bridges not checked; cysteine pairing not given here; UniProt P60022 33-68, looked up) [cationic peptide, source human]
reduction in bacterial growth ([1]; 24h, 60 μg/ml): ++(24h, (a “++” sign indicates a 51 to 89% reduction in growth)
Reduction v. control* (S. aureus 31): —
Reduction v. total** (S. aureus 31): —
Reduction v. control* (P. aeruginosa 6294; [7]): —
Reduction v. total** (P. aeruginosa 6294; [8]): —

B1: Secretory leukocyte protease inhibitor (protein, UniProt P03973 26-132, looked up)
Antileukoproteinase: SGKSFKAGVCPPKKSAQCLRYKKPECQSDWQCPGKKRCCPDTCGIKCLDPVDTPNPTRRKPGKCPVTYGQCLMLNPPNFCEMDGQCKRDLKCCMGMCGKSCVSPVKA
notes: cationic protein, source human
Reduction v. control* (S. aureus 31): —
Reduction v. total** (S. aureus 31): —
reduction in bacterial growth ([6]; growth state not given, 10-100 μg/ml): —
Reduction v. control* (P. aeruginosa 6294; [7]): —
Reduction v. total** (P. aeruginosa 6294; [8]): —
